From ChEMBL document CHEMBL1681686, “Discovery of N-methyl-1-(1-phenylcyclohexyl)methanamine, a novel triple serotonin, norepinephrine, and dopamine reuptake inhibitor” (Bioorg Med Chem Lett, 2011)

What was measured:
Format in all cases: ADME, organism-based
Details in all cases: in vivo; call rule not given here
Brain [1] = assay: Drug uptake in mouse brain at 30 mg/kg, po; design: dose 30 mg/kg, route oral
Plasma [2] = assay: Drug uptake in mouse plasma at 3 mg/kg, po; design: dose 3 mg/kg, route oral
Plasma [3] = assay: Drug uptake in mouse plasma at 30 mg/kg, po; design: dose 30 mg/kg, route oral
Brain [4] = assay: Drug uptake in mouse brain at 3 mg/kg, po; design: dose 3 mg/kg, route oral
Plasma [5] = assay: Drug uptake in mouse plasma at 10 mg/kg, po; design: dose 10 mg/kg, route oral
Brain [6] = assay: Drug uptake in mouse brain at 10 mg/kg, po; design: dose 10 mg/kg, route oral

Compound | Drug uptake (Brain [1]) | Drug uptake (Plasma [2]) [ng/mL] | Drug uptake (Plasma [3]) [ng/mL] | Drug uptake (Brain [4]) [ng/g] | Drug uptake (Plasma [5]) [ng/mL] | Drug uptake (Brain [6]) [ng/g]
CNCC1(c2ccc(Cl)c(Cl)c2)CCCCC1 | Active | – | – | – | – | –
CNCC1(c2ccc(Cl)c(Cl)c2)CCCCC1.Cl | 7464 ng/g | 11 | 227 | 546 | 50 | 2166
CNCC1(c2ccc3ccccc3c2)CCCCC1.Cl | 2175 ng/g | 8 | 120 | 123 | 21 | 306
